The text below walks through data of PMC3479139, “Diverse Small Molecule Inhibitors of Human Apurinic/Apyrimidinic Endonuclease APE1 Identified from a Screen of a Large Public Collection” (PLoS ONE, 2012).

Experiment [1] relates to human immunodeficiency virus integrase. More on the design: method as in PMID 9865384. The conditions noted are these: cited from earlier work.
For experiment [2], the target named is T1, APE1 (Homo sapiens, UniProt P27695).
T1 construct: made in house
The experiment in a line: Fluorescence polarization (FP) displacement assay of APE1 binding to AP-DNA probe.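 Also: TAMRA 5′-labeled duplex DNA with THF abasic site (5 nM) and APE1 (20 nM), Mg2+-free buffer, 15 min at room temperature, inhibition seen as lowered polarization.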 The conditions noted are these: read-out: FP IC50.

For experiment [3], the target named is double-stranded 17-mer DNA fragment. The experiment in a line: ThO (Thiazole Orange) DNA displacement assay.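 Also: miniaturized displacement of the intercalating dye from unlabeled duplex DNA, used to flag nonspecific DNA binders, chiefly intercalators, groove binders may be missed.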 The experiment is classed as binding. The conditions noted are these: read-out: ThO-DNA binding IC50.
The test system of experiment [4] is HeLa cells. Briefly: MMS potentiation assay (CellTiter Glo viability). The class given is cell-based, human. Also on record: key: N.A., no activity observed; P, positive; I, inconclusive; N.T., not tested. The conditions noted are these: for MMS Assay: potentiation of the genotoxic effect of methylmethane sulfonate. On the procedure: HeLa cells were plated at 6000 cells/well in DMEM culture medium containing 10% FBS into white solid bottom 384-well cell culture plates. The plates were incubated at 37°C overnight for cell attachment, followed by media replacement. The fresh medium contained serial dilutions of compounds of interest in the presence (0.4 mM final) or absence of MMS. The plates were incubated for 24 h at 37°C. Cell viability was determined by luminescence detection after an addition of 15 µL of CellTiter Glo reagent (Promega, Madison, WI). Percent viability was calculated for each concentration of compound tested in duplicate by relating the corresponding luminescence to that of a negative DMSO vehicle control. MMS potentiation trends were defined as follows: negative (-), if cell viability in the compound-plus-MMS treatment was the same as that of the DMSO-plus-MMS control (overlapping dose-response curves); inconclusive (I), if the shift in the cell viability dose-response upon MMS inclusion relative to compound-alone was less than 30%; and positive (P), if the difference between the compound-plus-MMS and compound-alone curves was at least 30%, and maintained within at least a two-fold compound concentration span.
To examine the biological prospects of the top compounds, we tested their ability to inhibit APE1 DNA repair activity by assessing enhancement of MMS toxicity in mammalian cells. MMS creates methylated-base damage to genomic DNA, which, when excised by an alkylpurine DNA glycosylase, results in a high number of cytotoxic AP sites. We compared the viability of HeLa cells exposed to a dilution series of inhibitor alone to a combination of a fixed MMS concentration with the same dilution series of inhibitor by using a standard CellTiter Glo luminescence assay. This technique measures the number of viable cells in culture based on quantitation of the ATP present, which signals the presence of metabolically active cells. The assay was further optimized for 384-well plates, allowing a high-throughput testing of multiple hits at multiple concentrations, a scope of investigation previously impossible due to the very low throughput of the traditionally applied colony formation assay.
From the 223 compounds found positive in the gel-based APE1 assays, exclusion of the most promiscuous hits, that is, those that were both DNA binders and EndoIV-inhibitory, yielded a set of 170 compounds (Figure 3). This shortened group of hits was tested in the cell-based potentiation assay for their ability to dose-dependently enhance sensitivity of HeLa cells to the alkylating agent MMS.

Experiment [5] has as its system HeLa cells. Briefly: AP site measurement in genomic DNA. The class given is cell-based, human. The conditions noted are these: for AP site levels, combination treatment versus MMS-alone / AP sites upon treatment with the inhibitor alone: 24 h; for AP site levels, combination treatment versus MMS-alone: initial test (Figure 8); for AP sites upon treatment with the inhibitor alone: inhibitor alone vs vehicle. Here is the method:
HeLa cells at 80% confluency (6×10^5 cells) were subjected to the following treatments in a 6-well plate for 24 hours at 37°C: 1) DMSO alone, 2) 275 µM MMS, 3) APE1 inhibitors dissolved in DMSO (5–20 µM final compound concentration), and 4) the inhibitors as in treatment 3 in combination with 275 µM MMS. Cells were then harvested and processed using a Qiagen Genomic DNA isolation kit (Germantown, MD). After DNA quantitation, AP sites were measured using the DNA Damage Quantification kit from Dojindo Molecular Technologies (Rockville, MD).
As stated above, the application of the genotoxic agent MMS results in an increase in the level of AP sites within the genome. An effective APE1-targeted inhibitor applied under the conditions of increased genotoxic stress is expected to interfere with the repair of AP sites, while ideally having no effect on the AP site levels when applied as a single agent. Thus, the net effect of treating cells with a combination of MMS and inhibitor would be an increase in the number of AP site lesions. To determine the effect on AP site accumulation caused by treatment with MMS in combination with an APE1 inhibitor, as compared to treatment with MMS or inhibitor alone, we measured AP site levels in the chromosomal DNA from HeLa cells using an aldehyde-reactive probe-based colorimetric assay. The concentrations of MMS and inhibitor (275 µM for MMS and between […] for the inhibitor, respectively) were selected to fall below the onset of cytotoxicity for each agent based on the analysis of the MMS potentiation data shown in Figure 5.

Experiment [6] has as its target T1, APE1. The experiment in a line: Gel-based radiotracer (32P) APE1 incision assay.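 Also: APE1 incision reactions ran 5 min at 37 °C, with cleaved product and intact substrate resolved electrophoretically.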 The experiment is classed as biochemical. More on the design: concentration or dose not given beside the values. The conditions noted are these: percent incision shown; entries 1-112.
Experiment [7] deals with T2, E. coli Endo IV (Escherichia coli, UniProt P0A6C1).
T2 construct: made in house
Briefly: E. coli Endo IV profiling counterscreen.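 Also: selectivity counterscreen of candidate APE1 inhibitors against the bacterial endonuclease Endo IV, run in the same assay format as the primary APE1 high-throughput screen.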 The experiment is classed as biochemical.
Excerpt: In order to screen out nonselective compounds, such as non-specific DNA binders and inhibitors of related enzymes, we used a miniaturized ThO DNA displacement assay and a counterscreen against the bacterial endonuclease E. coli Endo IV, respectively, following the previously published protocols [21].
To probe the selectivity of the candidate APE1 inhibitors, we tested them against E. coli EndoIV [36], employing the same assay as used in the HTS.

The target of experiment [8] is T1, APE1. The experiment in a line: Fluorogenic kinetic qHTS APE1 incision assay (primary screen and retest of cherrypicked samples).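 Also: purified APE1 cleaving a fluorophore/dark-quencher labelled 17-mer duplex DNA bearing a tetrahydrofuran AP site, fluorescence rise followed kinetically over the first 2 min, inhibition normalized to controls.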 The experiment is classed as biochemical.
Description: All screening operations were performed on a fully integrated robotic system (Kalypsys, San Diego, CA) [28] with library plates screened proceeding from the lowest to the highest concentration to minimize compound carryover [26]. Vehicle-only plates, with DMSO being pin-transferred to the entire column 5–48 compound area, were included regularly throughout the screen in order to record any systematic shifts in assay signal. During the screen, reagent bottles were kept at 4°C and all liquid lines were covered with aluminum foil to minimize degradation.
Screening data were corrected and normalized, and concentration–effect relationships was derived using in-house developed algorithms [25].
To screen for inhibitors of APE1 incision activity, we employed a purified-enzyme biochemical assay with a model substrate featuring a red-shifted fluorescent reporter in combination with a dark non-emitting quencher. These moieties were incorporated as end labels onto a 17-mer double-stranded DNA fragment containing a centrally-located tetrahydrofuran AP site sugar mimetic, which serves as the APE1 cleavage site. Upon APE1-catalyzed strand scission immediately 5′ to the AP site analog, the shortened oligodeoxynucleotide carrying the fluorescent reporter spontaneously dissociates from the rest of the substrate, leading to an increase in fluorescence due to its spatial separation from the dark quencher (Figure 1A).
Using a high-speed whole-plate fluorescence imager, the assay data for the entire screen was conducted in kinetic mode, with the APE1 incision reaction being monitored over the initial linear time frame of 2 min (Figure 1B). Thus, any inhibition associated with each sample was computed from the alteration in fluorescence intensity over the time-course measurement period, after normalization against the appropriate controls (Figure 1B, inset).
For experiment [9], the target named is T1, APE1. Briefly: Gel-based APE1 incision assay with fluorescence (TAMRA) detection. The experiment is classed as biochemical.
Description: To test the compounds’ inhibitory activity after the primary screen, two assays designed to monitor the cleavage of substrate to product through electrophoretic separation were utilized. The radiotracer incision assay, utilizing a ^32P-labeled substrate, was performed essentially as described [21], [31], [32]. Incision reactions utilizing ^32P-labeled substrate were carried out for 5 min at 37°C. After the addition of an equal volume of stop buffer (0.05% bromophenol blue and xylene cyanol, 20 mM EDTA, 95% formamide), the substrate and product were separated on a standard polyacrylamide denaturing gel and quantified by PhosphorImager analysis [32]. […] APE1 cleavage of the substrate results in a 18-mer TAMRA-labeled fragment which was separated by a non-denaturing polyacrylamide gel electrophoresis and quantitated in a Gel Doc XR imaging system, BioRad (Hercules, CA). The advantage of this assay is that it can be used in a relatively high throughput mode with the inhibitors tested at a range of concentrations (0.17 µM to 125 µM was used here). APE1 (0.15 nM) was added to a reaction mixture of 20 µL containing assay buffer (40 mM HEPES pH 7.5, 50 mM NaCl, 1 mM MgCl2 and 2 mM DTT), and labeled ds DNA substrate (final 75 nM). The mixture was incubated at RT for 15 min, and the reaction was stopped by the addition 20 µL of 2X dye stop solution (10% glycerol, 20 mM EDTA and bromophenol blue). Then 10 µL of the mixture was resolved on 20% polyacrylamide gel in 1X Tris-borate EDTA running buffer at 250 V for 40 min.
To eliminate false positive hits, all 595 confirmed molecules were tested for their ability to inhibit APE1 incision activity using biochemical assays that involve electrophoretic separation of the substrate and cleavage product.
In experiment [10] the test system is tubulin. More on the design: method as in PMID 20657644. The conditions noted are these: cited from earlier work.
For experiment [11], the system named is histone acetyltransferase (HAT) p300. Also on record: method as in PMID 20534345, PMID 21764752. The conditions noted are these: cited from earlier work.
The mark [12] stands for this setting: initial quantitative high-throughput screen, read-out: APE1 qHTS IC50.
[13] abbreviates: retest of cherrypicked sample, read-out: APE1 Retest IC50.
The mark [14] stands for this setting: estimated IC50, fluorophore detection, entries 113-223, read-out: F-PAGE Assay IC50.
Setting [15] is: initial qHTS, 7-point titration, read-out: qHTS, IC50 obtained in the initial quantitative high-throughput screen.

Read-outs that look alike come from different tables or passages of the source.

T1 sequence (P27695 whole entry): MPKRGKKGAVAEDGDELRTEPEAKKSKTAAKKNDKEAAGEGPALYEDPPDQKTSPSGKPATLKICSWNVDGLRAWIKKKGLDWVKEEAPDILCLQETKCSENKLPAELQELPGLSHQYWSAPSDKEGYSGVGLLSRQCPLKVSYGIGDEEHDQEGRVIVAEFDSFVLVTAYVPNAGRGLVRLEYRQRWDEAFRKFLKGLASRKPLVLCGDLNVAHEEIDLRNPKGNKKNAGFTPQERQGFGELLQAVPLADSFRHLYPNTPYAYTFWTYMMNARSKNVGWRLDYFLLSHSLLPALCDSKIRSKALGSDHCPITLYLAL

Turning to `O=c1oc2c(cc1O)oc(=O)c1cc(O)c(O)c(O)c12` [MLS000737267, galloflavin], the “HIV integrase IC50” value in [1] is on record as “low-micromolar”. The IC50 in [2] is over 57 µM; in [3], 6.3 µM; in [7] (read-out: EndoIV IC50), over 57 µM; in experiment [8] (setting [12]), 0.4 µM; in experiment [8] (setting [13]) it was 0.13 µM. Further, in experiment [4], the “MMS Assay” value is reported as “P”. Further, the “AP site levels, combination treatment versus MMS-alone” value in [5] (275 µM MMS plus inhibitor) was “no statistical significance”. In addition, the “Radiotracer Assay (%Activity)” value in [6] amounted to 46%.

Regarding `CC1CCN(C2=NN3C(=N)/C(=C\c4ccc(OC(=O)c5ccco5)cc4)C(=O)N=C3S2)CC1` [MLS001076862], the IC50 was over 57 µM in experiment [3], 4 µM in experiment [9] (setting [14]), over 57 µM in [7] (read-out: EndoIV IC50) and 10.6 µM in experiment [8] (setting [12]). Further, the “MMS Assay” value in experiment [4] was “P”. The “AP site levels, combination treatment versus MMS-alone” value in experiment [5] (275 µM MMS plus inhibitor) is “no statistical significance”. The “AP sites upon treatment with the inhibitor alone” value in [5] is on record as “noticeable increase in AP sites”.

With `COc1ccc2c(c1)c(=O)oc1cc(OCC(=O)N3CCc4ccccc4C3)ccc12` [MLS000594187], the IC50 is over 57 µM in [2]; over 57 µM in experiment [3]; over 57 µM in experiment [7] (read-out: EndoIV IC50); 10 µM in experiment [8] (setting [12]); 3.91 µM in experiment [8] (setting [13]). Also, the “MMS Assay” value in [4] was “P”. Further, in [5] (275 µM MMS plus inhibitor), the “AP site levels, combination treatment versus MMS-alone” value is “no statistical significance”. For the same compound, the “Radiotracer Assay (%Activity)” value in experiment [6] turned out to be 51%.

As to `Cc1c(C(=O)OCC2CCCO2)[nH]c2c1C(=O)CC(c1ccco1)C2` (stereo not shown) [MLS000090966], the IC50 in experiment [2] is 15.8 µM; in experiment [3], over 57 µM; in experiment [7] (read-out: EndoIV IC50), over 57 µM; in experiment [8] (setting [15]), 7.07 µM; in [8] (setting [12]) it was 7.1 µM; in [8] (setting [13]), 4.5 µM. In experiment [4], the “MMS Assay” value is given as “P”. Besides, in experiment [5] (275 µM MMS plus inhibitor), the “AP site levels, combination treatment versus MMS-alone” value was “obscured by large standard deviations”. The “Inhibition of tubulin assembly” value in experiment [10] was “effective inhibitor”. In addition, in experiment [6], the “Radiotracer Assay (%Activity)” value is listed as 37%.

With `COc1ccc2nc3cc(Cl)ccc3c(Nc3cc(CN4CCCC4)c(O)c(CN4CCCC4)c3)c2n1` [MLS001306480, pyronaridine, reference compound], the IC50 was 32.4 µM in experiment [2]; over 57 µM in [3]; 12.6 µM in experiment [9] (entries 113-223: fluorophore detection, estimated IC50, read-out: Gel-based electrophoretic separation assay with fluorophore detection, estimated IC50 (column headed Radiotracer Assay (%Activity))); 28.9 µM in experiment [7]; 15 µM in experiment [8] (setting [12]); 6.5 µM in [8] (setting [13]). Also, in experiment [4], the “MMS Assay: potentiation of the genotoxic effect of methylmethane sulfonate” value is recorded as “P”. Also, the “AP sites upon treatment with the inhibitor alone” value in [5] is given as “noticeable increase in AP sites”.

As to `COc1ccc(Cc2nnc(NC(=O)Cc3cccs3)s2)cc1OC` [MLS000115025], the IC50 in experiment [2] was over 57 µM; in experiment [3], over 57 µM; in [7] (read-out: EndoIV IC50), over 57 µM; in experiment [8] (setting [15]) it was 28.1 µM; in [8] (setting [12]) it was 28.2 µM; in experiment [8] (setting [13]), 2 µM. Besides, the “MMS Assay” value in [4] is “P”. In addition, the “AP site levels, combination versus MMS-alone, repeat testing” value in experiment [5] (275 µM MMS plus inhibitor, repeat test (Figure S1)) is given as “support the initially-observed enhancements”. The “AP site levels, combination treatment versus MMS-alone” value in experiment [5] (275 µM MMS plus inhibitor) is recorded as “obscured by large standard deviations”. Besides, in experiment [6], the “Radiotracer Assay (%Activity)” value is given as 48%.

Turning to `CCOC(=O)c1cc(-c2ccc(/C=C3/C(=O)N(c4ccc(C(=O)O)cc4)N=C3C)o2)ccc1Cl` [MLS001196838], the IC50 in experiment [2] was over 57 µM; in [3], 16.2 µM; in experiment [9] (setting [14]), 7.9 µM; in experiment [7] (read-out: EndoIV IC50), over 57 µM; in experiment [8] (setting [12]), 8.4 µM; in experiment [8] (setting [13]), 25.7 µM. For the same compound, in experiment [4], the “MMS Assay” value is reported as “P”. In experiment [5], the “AP sites upon treatment with the inhibitor alone” value was “noticeable increase in AP sites”. The “Inhibition of HAT p300” value in [11] is “potent and selective inhibitor”.
